Patent US9340577B2, “HLA binding motifs and peptides and their uses” (priority 1992, dated 2016)
Residues, ends and D or L forms follow the SMILES beside them. No end group written: not given here.

Legend:
Experiment in all cases: biochemical
Assay type in all cases: binding
HLA-A11 (A*1101) = HLA-A11 (A*1101) (Homo sapiens, UniProt P04439, A114D/D185E/E176A/F33Y/L180Q/S129P/T187R); set-up: A11: unit not given here
HLA-A3.2 (A*0301) = HLA-A3.2 (A*0301) (Homo sapiens, UniProt P04439); settings: for A*0301 binding: Table 11, binding value, no unit; for A3.2: Table 164, MAGE peptides, binding value to HLA-A3.2, no unit given
A31 (A*3101) = A31 (A*3101) (Homo sapiens, UniProt P04439, A270S/D185E/E176V/E277Q/F33T/G231S/G80R/H175R/I121M/I218V/I322F/K168Q/L300P/L318F/M331R/P217A/Q94H/R138Q/T323A/T345S/T97I/V358M)
A*3301 = A*3301 (Homo sapiens, UniProt P04439, A270S/D185E/E176V/E277Q/E87N/F33T/G231S/H175R/I121M/I218V/I322F/K168Q/K210R/L300P/L318F/M331R/P217A/Q86R/Q94H/R138Q/T323A/T345S/T97I/V358M/Y195H)
HLA-A*0201 (HLA-A2.1) = HLA-A*0201 (HLA-A2.1) (Homo sapiens, UniProt P04439, D140Y/D185E/D98H/E176V/E277Q/G131W/G231S/I119V/I121R/I166T/I218V/L300P/L318F/N151K/N90K/P208A/P217A/Q86G/Q94H/R138H/R169H/T345S)
A*6801 = A*6801 (Homo sapiens, UniProt P04439, A269V/D185E/E176V/E277Q/E87N/F33Y/G231S/I121M/I166T/I218V/L180W/L300P/L318F/N151K/P208A/P217A/Q86R/R169H/T345S)

Compound	A*1101 binding (HLA-A11 (A*1101))	A*0301 binding (HLA-A3.2 (A*0301))	IC50 (HLA-A11 (A*1101)) [nM]	IC50 (HLA-A3.2 (A*0301)) [nM]	IC50 (A31 (A*3101)) [nM]	IC50 (A*3301) [nM]	A11 (HLA-A11 (A*1101))	A2.1 (HLA-A*0201 (HLA-A2.1))	A3.2 (HLA-A3.2 (A*0301))	IC50 (A*6801) [nM]
34.0232 (RVCACPGRDK) [Peptide 34.0232]	0.0250	0.0190	–	–	–	–	–	–	–	–
LALTALITPK [Peptide 9017.0228]	–	–	6.6	88	1730	> 20000	–	–	–	–
ALTALITPK [Peptide 9017.0099]	–	–	16	17	439	–	–	–	–	–
VLYGPANTGK [Peptide 88.0180]	–	–	25	9.8	1930	–	–	–	–	–
FLIIVLVMIA	–	–	–	–	–	–	0.0030	0.0003	0.0093	–
AAEGVGAVSR [Peptide 9017.0188]	–	–	992	16000	2680	4120	–	–	–	–
WFFVETIVEK [Peptide 88.0171]	–	–	1480	13700	18300	201	–	–	–	–
VVCTYSPALNK [Peptide 1556.35]	–	–	104	370	5190	> 20000	–	–	–	–
RIGILRQRR [Peptide 9017.0113]	–	–	1140	277	7.6	–	–	–	–	–
VLILALLRYK [Peptide 88.0144]	–	–	266	52	–	–	–	–	–	–
SQTCALYWFR [Peptide 88.0165]	–	–	1830	4850	–	260	–	–	–	–
KVCSGVDYR [Peptide 1589.35]	–	–	5170	> 20000	–	5780	–	–	–	–
ISKQPLPQTR [Peptide 9017.0207]	–	–	> 20000	> 20000	83	2580	–	–	–	–
F119.02 (LLGPGRPYR) [Peptide F119.02]	0.0091	0.0190	–	–	–	–	–	–	–	–
CC[C@H](C)[C@H](NC(=O)[C@H](CS)NC(=O)[C@H](CCCNC(=N)N)NC(=O)[C@@H](NC(=O)[C@@H](N)CC(C)C)[C@@H](C)CC)C(=O)N[C@H](C(=O)N[C@@H](CS)C(=O)N[C@@H](CCC(N)=O)C(=O)N[C@@H](CCCCN)C(=O)O)[C@@H](C)CC [Peptide 88.0298] (H-LIRCIICQK-OH)	–	–	252	445	639	834	–	–	–	–
TVWNPPTTAK [Peptide 1556.03]	–	–	26	25	9190	1580	–	–	–	–
FLGALKSFLK [Peptide 88.0148]	–	–	120	27	327	–	–	–	–	–
GVSIEWRQR [Peptide 9017.0087]	–	–	1220	13100	335	2090	–	–	–	–
34.0050 (RVCACPGR) [Peptide 34.0050]	0.0490	0.3500	–	–	–	–	–	–	–	–
34.0171 (SSBMGGMNK) [Peptide 34.0171]	1.1000	0.5440	–	–	–	–	–	–	–	–
LQMALETLSK [Peptide 88.0214]	–	–	22	559	10600	> 20000	–	–	–	–
FTDLTIVYR [Peptide 78.0313]	–	–	2660	> 20000	602	585	–	–	–	–
VSIEWRKRR [Peptide 9017.0090]	–	–	77	2650	9.2	58	–	–	–	–
34.0323 (RVCACPGRDRR) [Peptide 34.0323]	0.0290	0.0290	–	–	–	–	–	–	–	–
SLARRHIAR [Peptide 9017.0067]	–	–	1100	66	1.5	30	–	–	–	–
VLCGPPNTGK [Peptide 88.0189]	–	–	220	141	370	> 20000	–	–	–	–
AILGHIVSPR [Peptide 9017.0225]	–	–	–	14	4.6	74	–	–	–	92

Compound	A*1101 binding (HLA-A11 (A*1101))	A*0301 binding (HLA-A3.2 (A*0301))	IC50 (HLA-A11 (A*1101)) [nM]	IC50 (HLA-A3.2 (A*0301)) [nM]	IC50 (A31 (A*3101)) [nM]	IC50 (A*3301) [nM]	A11 (HLA-A11 (A*1101))	A2.1 (HLA-A*0201 (HLA-A2.1))	A3.2 (HLA-A3.2 (A*0301))	IC50 (A*6801) [nM]
VTIKIGGQIK [Peptide 1516.02]	–	–	184	1110	19300	> 20000	–	–	–	–
GLYYIHGNEK [Peptide 1589.40]	–	–	18	17	141	4510	–	–	–	–
SVRKLVEDR [Peptide 9017.0105]	–	–	1140	5100	15	187	–	–	–	–
ALTALITPKK [Peptide 9017.0230]	–	–	6.8	44	7410	> 20000	–	–	–	–
KSLFGMSLMK [Peptide 1587.13]	–	–	1.5	4.4	271	> 20000	–	–	–	–
LTYISTSQR [Peptide 1589.19]	–	–	–	14	39	79	–	–	–	0.76
LTALIKPKKR [Peptide 9017.0231]	–	–	–	6460	1300	8720	–	–	–	39
AFTDLTIVYR [Peptide 78.0052]	–	–	–	> 20000	810	817	–	–	–	210
VFGIDVKEA	–	–	–	–	–	–	0	<0.0002	<0.0002	–
SLKCLRYRLK [Peptide 88.0217]	–	–	–	74	2690	18800	–	–	–	12600
QQRSLTEILK [Peptide 9012.0218]	–	–	93	520	–	> 20000	–	–	–	–
RILSTCLGR [Peptide 9017.0073]	–	–	–	58	8.5	1450	–	–	–	1450
LTARNVLVK [Peptide 9012.0213]	–	–	–	23	> 20000	> 20000	–	–	–	52
RLCDHIDYWK [Peptide 1589.11]	–	–	–	457	1630	> 20000	–	–	–	17100
LVFGIDVKEA	–	–	–	–	–	–	0	0.0002	<0.0002	–
F119.01 (MSLQRQFLR) [Peptide F119.01]	0.7200	0.2000	–	–	–	–	–	–	–	–
NTNAGTDPR [Peptide 88.0372]	–	–	–	1120	7020	418	–	–	–	50
LQQTSLEMWR [Peptide 88.0228]	–	–	445	13100	–	> 20000	–	–	–	–
SQRLNACQNK [Peptide 1589.34]	–	–	–	2700	5960	> 20000	–	–	–	> 20000
EVYDGREHSA	–	–	–	–	–	–	0	0	<0.0002	–
KTLLQQYCLY [Peptide 88.0130]	–	–	–	206	2920	14400	–	–	–	7030
RFHNIAGHYR [Peptide 78.0097]	–	–	–	2460	11	99	–	–	–	151
AFKDLFVVYK [Peptide 88.0024]	–	–	–	3260	32	93	–	–	–	576
KQMSMSQWIK [Peptide 1587.09]	–	–	17	49	50	–	–	–	–	–
TTITVYAEPPR [Peptide 1556.07]	–	–	–	> 20000	577	2550	–	–	–	20
IMCLRFLSK [Peptide 1571.12]	–	–	–	11	2300	2620	–	–	–	12900
LQGLAQSRYK [Peptide 88.0201]	–	–	–	1100	4010	> 20000	–	–	–	> 20000
